Where a SMILES comes first, the peptide text is derived from it. Bridges are numbered along the chain shown (N, C = ends). [ ]: non-standard residue; d: D form. hArg = N=C(N)NCCCC[C@H](N)C(=O)O; Mpa = O=C(O)CCS
Columns and labels:
M21 melanoma cells = test: Cell adhesion assay: 35S-methionine labelled cells on vitronectin-coated plates; assay type: cell-based; settings: for effect on cell adhesion / attachment to vitronectin (in words): M21 melanoma cells, vitronectin-coated plates
Experimental: M21 melanoma cells were labelled with ^35S-methionine, and then added to vitronectin-coated plates in the presence of the indicated concentrations of purified snake venom peptides. Cell attachment was measured by solubilizing the cells remaining after an incubation and wash, as previously describe.

GP IIb-IIIa = target: T1, GP IIb-IIIa (Homo sapiens, UniProt P05106+P08514); test: Plate assay: inhibition of fibrinogen binding to immobilized GP IIb-IIIa; settings: for differential: inhibiting the binding of fibrinogen to GP IIb-IIIa as compared to vitronectin to vitronectin receptor (in words): plate assays
T1 construct: from tissue
Experimental: In the assay, GP IIb-IIIa, prepared in purified form, for example as described by Fitzgerald, L.A., et al., Anal Biochem (1985) 151:169-177, incorporated herein by reference, is coated onto a solid support such as beads, test tubes, or microtiter plates. The coated support is then contacted with fibrinogen and with the test material and incubated for a sufficient time to permit maximal binding of fibrinogen to the immobilized GP IIb-IIIa. Fibrinogen is typically provided at a concentration of about 5-50 nM and the test material can, if desired, be added at a series of dilutions. Typical incubations are 2-4 hr at 35°C, the time and temperature being interdependent.
After incubation, the solution containing the fibrinogen and test material is removed and the level of binding of fibrinogen measured by quantitating bound fibrinogen to GP IIb-IIIa. Any suitable means of detection can be used, but it is convenient to employ labeled fibrinogen, for example using radioactive, fluorescent or biotinylated labels. Such methods are well known and need not be elaborated here.
Assessment of the results is aided by employing a control sample, usually identical to the test sample except that the test substance is absent. In this case, percent inhibition may be calculated using the basis, so that % inhibition =(control - test)/(control)x 100. [formula] Other measures of inhibition effectiveness, such as IC50, can also be used.

[1] = target: ADP-induced human platelet aggregation (Homo sapiens, UniProt P05106+P08514); test: Standard platelet aggregation inhibition assay; assay type: cell-based
From the text: In addition to the above plate assays, other assays for platelet aggregation inhibition activity and related activities are also available, as set forth above. In summary, a list of commonly employed assays is as follows: • 1. The plate assays utilizing specific receptors described in the previous paragraphs; • 2. Standard assays directly applied to platelet aggregation, such as those described by Gann, Z.-R., et al., J Biol Chem (1988) 263:19827-19832; Huang, T.F., et al., J Biol Chem (1987) 262:16157-16163; Biochemistry (1989) 28:661-666, cited above and incorporated herein by reference; • 3. An in vivo thrombosis model in dogs as described by Folts, J.D., et al., Circulation (1976) 54:365; and • 4. Effect on cell adhesion using S35 methionine-labeled cells as described hereinbelow in Example 10.
IC50 values for the analogs of the invention in this assay are as follows:
A solution was formed in 1.0 M citric acid of greater than 95% pure cyclic form of Mpr-L-homoarginine-Gly-Asp-Trp-Pro-Cys-NH2 • acetate polypeptide (I) at a concentration of up to 200 mg per ml of solution. This solution was diluted to the desired final peptide concentration as follows: This solution was first diluted to about 85% of the final volume with water. The pH of the solution was adjusted to 5.0-5.5 using sodium hydroxide. The solution was then diluted to the final volume with water. Compositions having a concentration of (I) of 0.5 mg/ml and 5.0 mg/ml were formulated and evaluated for stability by HPLC, UV and visual inspection as described in Example 1. The compositions were also evaluated for platelet aggregation inhibiting activity using the assay described above.

[2] = Storage stability of polypeptide in citrate buffer solution, analysed by reversed phase HPLC; assay type: physicochemical; parameters: key: % of main peak of original polypeptide found by HPLC; settings: 25 mM citrate buffer pH 5.25, about 1 mg/mL
[3] = as above; assay type: physicochemical
Experimental: One ml aliquots of the above solution of polypeptide in citrate buffer were sealed in borosilicate glass ampules under sterile conditions and stored at a constant temperature. Test sample ampules from each pH and temperature condition 4°C, 50°C and 70°C were removed periodically, visually assessed and then analyzed separately by HPLC using a mobile phase comprising acetonitrile (MeCN) and 0.1% trifluoroacetic (TFA) in water. This stability was evaluated by conventional assay methods applicable to purity, weight or size of polypeptides. These included not only visual evaluations, such as discoloration, transparency and precipitation, and included assays normally applied to separate polypeptides from each other and from other materials by reversed phase high performance liquid chromatography (HPLC).
Results of these experiments are set forth in Table 1 in which the stability is expressed in terms of the percentage of main peak of original polypeptide found in the sample analyzed by HPLC. The composition was also found to be normal on visual evaluation. […]

vitronectin receptor = vitronectin receptor (Homo sapiens, UniProt P05106+P06756); test: Plate assay: inhibition of vitronectin binding to vitronectin receptor; settings: at concentrations up to 1 uM
From the text: The PAI assay systems further include characterization of the PAI specificity by binding inhibition assays identical to that above but substituting other adhesive proteins for Fg and other receptors for GP IIb-IIIa. In particular, inhibition of the binding of vitronectin to the vitronectin receptor; fibronectin to the fibronectin receptor; fibronectin to GP IIb-IIIa and fibrinogen and/or vWF to GP IIb-IIIa can be assessed. The adhesive protein and receptors for these assays are available in the art.

ADP-induced human platelet aggregation, sequence (P08514 32-1039): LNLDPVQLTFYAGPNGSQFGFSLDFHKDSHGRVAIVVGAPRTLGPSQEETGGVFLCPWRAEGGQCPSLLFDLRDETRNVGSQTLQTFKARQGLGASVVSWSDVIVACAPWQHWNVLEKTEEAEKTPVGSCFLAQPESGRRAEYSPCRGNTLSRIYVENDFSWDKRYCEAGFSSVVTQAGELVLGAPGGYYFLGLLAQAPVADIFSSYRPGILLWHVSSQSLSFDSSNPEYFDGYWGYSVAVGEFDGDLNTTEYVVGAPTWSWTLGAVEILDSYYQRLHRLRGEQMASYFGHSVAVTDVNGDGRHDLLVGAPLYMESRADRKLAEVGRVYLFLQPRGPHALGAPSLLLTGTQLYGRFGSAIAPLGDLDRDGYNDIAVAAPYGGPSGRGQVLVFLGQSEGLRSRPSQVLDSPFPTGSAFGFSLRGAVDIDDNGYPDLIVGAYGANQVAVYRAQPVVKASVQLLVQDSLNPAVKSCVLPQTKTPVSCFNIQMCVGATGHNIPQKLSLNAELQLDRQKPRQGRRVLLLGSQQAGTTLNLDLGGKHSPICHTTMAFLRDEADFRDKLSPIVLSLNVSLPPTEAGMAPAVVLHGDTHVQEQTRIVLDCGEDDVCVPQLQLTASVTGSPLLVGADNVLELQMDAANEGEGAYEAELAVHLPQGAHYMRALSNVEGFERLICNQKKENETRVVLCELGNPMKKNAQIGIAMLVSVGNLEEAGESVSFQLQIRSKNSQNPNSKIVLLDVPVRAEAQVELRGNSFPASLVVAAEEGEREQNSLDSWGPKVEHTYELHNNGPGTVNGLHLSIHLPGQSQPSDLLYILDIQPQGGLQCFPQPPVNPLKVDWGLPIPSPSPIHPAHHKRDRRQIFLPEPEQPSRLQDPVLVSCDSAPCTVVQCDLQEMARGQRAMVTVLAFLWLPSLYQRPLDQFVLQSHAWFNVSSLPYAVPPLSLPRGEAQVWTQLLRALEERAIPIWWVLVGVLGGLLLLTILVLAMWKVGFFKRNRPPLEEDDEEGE
ADP-induced human platelet aggregation, sequence (P05106 27-788): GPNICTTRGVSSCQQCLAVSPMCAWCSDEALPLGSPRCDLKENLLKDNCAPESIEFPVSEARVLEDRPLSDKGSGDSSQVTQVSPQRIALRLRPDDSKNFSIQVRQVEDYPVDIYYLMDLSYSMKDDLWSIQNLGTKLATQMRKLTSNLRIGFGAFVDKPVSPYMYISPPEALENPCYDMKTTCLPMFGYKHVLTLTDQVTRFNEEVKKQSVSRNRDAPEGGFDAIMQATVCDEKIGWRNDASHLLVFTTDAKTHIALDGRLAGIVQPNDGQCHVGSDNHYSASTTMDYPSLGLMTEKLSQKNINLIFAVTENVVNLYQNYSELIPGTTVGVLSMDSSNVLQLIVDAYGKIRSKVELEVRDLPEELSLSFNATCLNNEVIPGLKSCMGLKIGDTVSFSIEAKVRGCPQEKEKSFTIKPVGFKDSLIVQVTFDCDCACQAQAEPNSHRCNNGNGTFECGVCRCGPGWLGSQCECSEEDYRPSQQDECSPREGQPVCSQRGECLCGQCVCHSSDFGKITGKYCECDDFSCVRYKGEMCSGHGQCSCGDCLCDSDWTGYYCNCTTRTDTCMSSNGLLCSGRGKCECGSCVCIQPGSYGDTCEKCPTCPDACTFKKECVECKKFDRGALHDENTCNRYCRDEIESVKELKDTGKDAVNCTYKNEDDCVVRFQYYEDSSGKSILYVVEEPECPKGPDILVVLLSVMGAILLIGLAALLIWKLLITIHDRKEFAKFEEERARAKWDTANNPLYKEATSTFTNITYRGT
T1 sequence (P08514 32-887 limits assumed): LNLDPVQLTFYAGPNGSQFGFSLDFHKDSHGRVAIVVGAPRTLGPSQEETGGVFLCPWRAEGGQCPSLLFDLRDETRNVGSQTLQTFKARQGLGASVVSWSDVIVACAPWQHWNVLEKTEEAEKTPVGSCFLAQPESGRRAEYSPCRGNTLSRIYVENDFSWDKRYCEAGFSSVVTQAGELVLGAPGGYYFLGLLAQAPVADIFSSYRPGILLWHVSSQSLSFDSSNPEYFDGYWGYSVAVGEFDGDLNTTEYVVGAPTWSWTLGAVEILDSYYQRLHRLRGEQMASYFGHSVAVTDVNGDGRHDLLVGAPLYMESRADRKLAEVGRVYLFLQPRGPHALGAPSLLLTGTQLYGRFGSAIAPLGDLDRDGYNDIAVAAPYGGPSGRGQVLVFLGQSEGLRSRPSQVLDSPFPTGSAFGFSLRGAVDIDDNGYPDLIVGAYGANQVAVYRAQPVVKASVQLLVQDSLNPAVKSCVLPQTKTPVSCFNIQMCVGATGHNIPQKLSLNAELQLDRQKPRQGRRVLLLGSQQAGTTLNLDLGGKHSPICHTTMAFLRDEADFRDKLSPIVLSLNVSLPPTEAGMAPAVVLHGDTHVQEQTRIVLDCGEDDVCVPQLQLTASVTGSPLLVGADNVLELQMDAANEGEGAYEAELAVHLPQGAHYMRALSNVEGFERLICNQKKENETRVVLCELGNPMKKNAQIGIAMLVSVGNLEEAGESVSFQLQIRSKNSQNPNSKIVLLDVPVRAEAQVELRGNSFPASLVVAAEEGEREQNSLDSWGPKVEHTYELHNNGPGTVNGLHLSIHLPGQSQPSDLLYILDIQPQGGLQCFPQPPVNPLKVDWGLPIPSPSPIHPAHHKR
T1 sequence (P08514 891-1039 limits assumed): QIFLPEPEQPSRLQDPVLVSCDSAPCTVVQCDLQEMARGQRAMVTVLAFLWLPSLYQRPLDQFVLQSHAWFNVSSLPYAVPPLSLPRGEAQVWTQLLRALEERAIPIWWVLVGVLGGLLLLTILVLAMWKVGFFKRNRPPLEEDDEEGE
T1 sequence (P05106 27-788): as the sequence (P05106 27-788) above
vitronectin receptor, sequence (P06756 31-889 limits assumed): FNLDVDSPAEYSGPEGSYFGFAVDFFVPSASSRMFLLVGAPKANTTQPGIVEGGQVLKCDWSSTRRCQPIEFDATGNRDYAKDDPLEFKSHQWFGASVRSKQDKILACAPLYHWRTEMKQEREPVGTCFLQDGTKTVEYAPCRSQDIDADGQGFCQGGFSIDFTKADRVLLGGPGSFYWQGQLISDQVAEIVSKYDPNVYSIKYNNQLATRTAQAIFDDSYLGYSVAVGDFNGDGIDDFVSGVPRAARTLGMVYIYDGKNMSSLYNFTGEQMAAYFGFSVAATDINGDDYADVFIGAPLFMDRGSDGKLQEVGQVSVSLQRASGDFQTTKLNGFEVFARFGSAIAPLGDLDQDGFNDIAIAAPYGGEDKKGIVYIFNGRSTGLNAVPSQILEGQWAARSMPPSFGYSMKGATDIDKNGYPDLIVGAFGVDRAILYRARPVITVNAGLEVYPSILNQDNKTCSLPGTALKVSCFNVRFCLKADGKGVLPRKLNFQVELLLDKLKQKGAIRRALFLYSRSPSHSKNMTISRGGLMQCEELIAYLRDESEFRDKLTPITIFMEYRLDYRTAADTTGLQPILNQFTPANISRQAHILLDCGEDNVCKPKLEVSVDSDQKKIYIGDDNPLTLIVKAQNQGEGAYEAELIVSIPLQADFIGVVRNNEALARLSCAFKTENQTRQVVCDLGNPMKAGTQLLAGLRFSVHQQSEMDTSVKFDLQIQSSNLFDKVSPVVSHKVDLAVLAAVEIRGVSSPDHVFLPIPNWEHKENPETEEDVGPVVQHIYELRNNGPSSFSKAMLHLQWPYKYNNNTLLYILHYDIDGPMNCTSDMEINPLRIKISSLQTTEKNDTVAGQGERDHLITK
vitronectin receptor, sequence (P06756 891-1048 limits assumed): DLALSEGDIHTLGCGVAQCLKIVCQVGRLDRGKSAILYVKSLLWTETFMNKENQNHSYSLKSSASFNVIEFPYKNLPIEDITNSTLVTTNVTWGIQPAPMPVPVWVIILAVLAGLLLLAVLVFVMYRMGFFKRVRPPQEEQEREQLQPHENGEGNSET
vitronectin receptor, sequence (P05106 27-788): as the sequence (P05106 27-788) above

## C[C@H](NC(=O)[C@@H]1CSSC[C@H](NC(=O)CN)C(=O)NCC(=O)N[C@@H](CCCCN)C(=O)NCC(=O)N[C@@H](CC(=O)O)C(=O)N[C@@H](Cc2c[nH]c3ccccc23)C(=O)N2CCC[C@H]2C(=O)N1)C(N)=O [Analog #3, G-C-G-K-G-D-W-P-C-A-NH2]
M21 melanoma cells; up to 60 uM
  effect on M21 cell attachment to vitronectin (in words): ineffective

## C[C@H](NC(=O)[C@@H]1CSSC[C@H](NC(=O)CN)C(=O)N[C@@H](CCCCN)C(=O)NCC(=O)N[C@@H](CC(=O)O)C(=O)N[C@@H](Cc2c[nH]c3ccccc23)C(=O)N2CCC[C@H]2C(=O)N1)C(N)=O [Analog #4] (H-GCKGDWPCA-NH2; disulfide 2-8)
GP IIb-IIIa
  differential: inhibiting the binding of fibrinogen to GP IIb-IIIa as compared to vitronectin to vitronectin receptor (in words): highest differential

## NCCCC[C@@H]1NC(=O)CNC(=O)[C@@H](N)CSSC[C@@H](C(N)=O)NC(=O)[C@@H]2CCCN2C(=O)[C@H](Cc2c[nH]c3ccccc23)NC(=O)[C@H](CC(=O)O)NC(=O)CNC1=O [Analog #5] (H-CGKGDWPC-NH2; disulfide 1-8)
GP IIb-IIIa
  differential: inhibiting the binding of fibrinogen to GP IIb-IIIa as compared to vitronectin to vitronectin receptor (in words): quite specific
[1]
  platelet aggregation inhibition activity (in words): excellent platelet aggregation inhibition activities

## C[C@H](NC(=O)[C@@H]1CSSC[C@H](NC(=O)CN)C(=O)N[C@@H](CCCCN)C(=O)NCC(=O)N[C@@H](CC(=O)O)C(=O)N[C@@H](Cc2c[nH]c3ccccc23)C(=O)N1)C(N)=O [Analog #7] (H-GCKGDWCA-NH2; disulfide 2-7)
GP IIb-IIIa
  differential: inhibiting the binding of fibrinogen to GP IIb-IIIa as compared to vitronectin to vitronectin receptor (in words): quite specific
[1]
  platelet aggregation inhibition activity (in words): excellent platelet aggregation inhibition activities

## NCCCC[C@@H]1NC(=O)CCSSC[C@@H](C(N)=O)NC(=O)[C@@H]2CCCN2C(=O)[C@H](Cc2c[nH]c3ccccc23)NC(=O)[C@H](CC(=O)O)NC(=O)CNC1=O [Analog #19, Mpr-K-G-D-W-P-C-NH2] ([Mpa]KGDWPC-NH2; disulfide 1-7 (inferred))
[1]
  platelet aggregation inhibition activity (in words): good platelet aggregation inhibition activity

## N=C(N)NCCCC[C@@H]1NC(=O)CCSSC[C@@H](C(N)=O)NC(=O)[C@@H]2CCCN2C(=O)[C@H](Cc2c[nH]c3ccccc23)NC(=O)[C@H](CC(=O)O)NC(=O)CNC1=O [Analog #60, Mpr-(Har)-G-D-W-P-C-NH2] ([Mpa][hArg]GDWPC-NH2; disulfide 1-7 (inferred))
M21 melanoma cells
  effect on cell adhesion / attachment to vitronectin (in words): relatively less effective
[1]
  platelet aggregation inhibition activity (in words): efficient at vanishingly small concentrations

## C[C@H](NC(=O)[C@@H]1CSSC[C@H](NC(=O)CN)C(=O)NCC(=O)N[C@@H](CCCNC(=N)N)C(=O)NCC(=O)N[C@@H](CC(=O)O)C(=O)N[C@@H](Cc2c[nH]c3ccccc23)C(=O)N2CCC[C@H]2C(=O)N1)C(N)=O [reference compound] (H-GCGRGDWPCA-NH2; disulfide 2-9)
M21 melanoma cells
  effect on cell adhesion / attachment to vitronectin (in words): potent inhibitors of cell attachment

## Mpr-Ala-(Har)-G-D-W-P-C-NH2
[2]; 5°C, 0 days
  stability by HPLC: 99.6
[2]; 5°C, 29 days
  stability by HPLC: 98.1
[2]; 5°C, 60 days
  stability by HPLC: 98.3
[2]; 5°C, 90 days
  stability by HPLC: 97.3
[2]; 30°C, 29 days
  stability by HPLC: 97.3
[2]; 30°C, 60 days
  stability by HPLC: 97.3
[2]; 30°C, 90 days
  stability by HPLC: 96.5
[2]; 45°C, 29 days
  stability by HPLC: 95.4
[2]; 45°C, 60 days
  stability by HPLC: 92.6
[2]; 45°C, 90 days
  stability by HPLC: 90.6

## Mpr-L-homoarginine-Gly-Asp-Trp-Pro-Cys-NH2 • acetate
[3]; Example 1: 2 mg/ml in citrate buffer pH 5.00 and 5.50, about 4°C
  stability of liquid solution (in words): very stable
[3]; Example 1: 2 mg/ml in citrate buffer pH 5.00 and 5.50, up to about 50°C
  stability of liquid solution (in words): still stable
[3]; Example 1: citrate buffer pH 5.00 and 5.50, 70°C, in comparison to citrate buffer solutions at pH 6.0
  stability of liquid solution (in words): much more stable

## [E^28L^41C^64]barbourin (28-73):E-C-A-D-G-L-C-C-D-O-CRFLKKGTVCRVAKGDWNDDTCTG-O-S-C-D-C-P-R-N-G-L-Y-G [Analog #1]
M21 melanoma cells
  effect on cell adhesion / attachment to vitronectin (in words): Neither barbourin nor Peptide 1 (truncated barbourin) had a significant effect
Vitronectin receptor
  affinity for VnR: relative lack of affinity
GP IIb-IIIa
  affinity for GP IIb-IIIa (ability to inhibit the binding of fibrinogen to GP IIb-IIIa): high affinity
[1]
  platelet aggregation inhibition activity (in words): potent inhibitors of platelet aggregation

Source: patent EP0639202B1, “STABLE POLYPEPTIDE COMPOSITION” (COR THERAPEUTICS, INC., priority 1992, dated 1993)
